Results: PMC3574796 (Future medicinal chemistry, 2012)

What was measured:
[1] = test system: P. falciparum parasites (DV morphology); assay: Digestive vacuole phenotype, light microscopy of Giemsa-stained parasites; type: cell-based, Plasmodium falciparum; conditions: 3.3 µM compound
malaria parasite = conditions: cited from earlier work

SMILES: CC(C)C[C@H](NC(=O)[C@H]1O[C@@H]1C(=O)O)C(=O)NCCCCN=C(N)N [Compound E64, E64]
- DV phenotype [1]: swollen and dark staining DV phenotype

SMILES: Nc1cc(Cl)ccc1Cl [2,5-dichloroaniline]
- Antimalarial activity (malaria parasite): without antimalarial activity
